According to PMC9295122, “Sialic Acid Derivatives Inhibit SiaT Transporters and Delay Bacterial Growth” (ACS Chemical Biology, 2022):
In brackets after ≈: the same amount, converted by molar mass. Like-named read-outs stand apart in the source and are kept apart here.

Experiments:
[1] = molecular target: T1, PmSiaT (Proteus mirabilis, UniProt B4EZY7); test: nanoDSF thermal shift assay, PmSiaT; assay type: binding; conditions: for Average 2 / Average 3 / Replicate 1 / Replicate 2 / Replicate 3 / Average 1: PmSiaT Tm; for Average 2: average of experiment 2; for Average 3: average of experiment 3; for Replicate 1: experiment 1, second capillary; for Replicate 1 / Replicate 2 / Replicate 3 / Tm 1 / Tm2 / Tm 3 / Tm average overall / ΔTm at 1250 µM: 1.25 mM; for Replicate 2: experiment 2, second capillary; for Replicate 3: experiment 3, second capillary; for Tm 1: experiment 1, first capillary; for Tm2: experiment 2, first capillary; for Tm 3: experiment 3, first capillary; for Tm average overall / ΔTm at 1250 µM: three experiments; for Average 1: average of experiment 1; for ΔTm at 1250 µM: vs Neu5Ac, read-out: ΔTm average overall
T1 construct: made in house
T1 sequence (B4EZY7 1-496): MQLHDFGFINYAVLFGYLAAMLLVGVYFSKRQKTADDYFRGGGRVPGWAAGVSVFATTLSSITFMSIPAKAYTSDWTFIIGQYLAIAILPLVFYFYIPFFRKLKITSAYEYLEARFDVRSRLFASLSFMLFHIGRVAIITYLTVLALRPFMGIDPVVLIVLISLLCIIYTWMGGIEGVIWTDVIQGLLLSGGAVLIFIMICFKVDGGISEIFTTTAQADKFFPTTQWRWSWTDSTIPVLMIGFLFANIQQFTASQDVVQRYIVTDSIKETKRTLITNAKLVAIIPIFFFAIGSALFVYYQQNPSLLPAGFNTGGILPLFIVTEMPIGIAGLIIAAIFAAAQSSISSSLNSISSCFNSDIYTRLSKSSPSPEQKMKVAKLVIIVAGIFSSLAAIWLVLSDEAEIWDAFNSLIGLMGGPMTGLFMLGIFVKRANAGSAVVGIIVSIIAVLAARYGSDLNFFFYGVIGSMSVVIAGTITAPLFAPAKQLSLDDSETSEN
Method in brief: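 Protein at 2 μM in PBS with 0.0174% (w/v) DDM and ligand at 1.25 mM were heated from 25 to 95 °C at 1 °C/min, with 330/350 nm fluorescence ratio and its first derivative giving Tm. ΔTm is relative to the Neu5Ac Tm, averaged over 3 experiments with 2 capillaries each.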

[2] = molecular target: T1, PmSiaT; test: Isothermal titration calorimetry, PmSiaT; assay type: binding
Protocol: The binding thermodynamic analysis performed via isothermal titration calorimetry (ITC) provides insights into dissociation constants (Kd) and the binding driving forces of compounds 3a, 3e, and 3f with PmSiaT and SaSiaT.
Isothermal titration calorimetric experiments were performed on an ITC200 instrument (MicroCal, Northampton, USA) at 25 °C using standard instrument settings (reference power of 6 μcal s^–1, stirring speed of 750 rpm, feedback mode high, and filter period of 2 s). Protein solutions were dialyzed against ITC buffer (50 mM Tris–HCl, 150 mM NaCl, with 0.0174% (w/v) DDM, pH 8.0 at 5 °C) prior to the experiments, and all the samples were prepared using the dialysate buffer to minimize dilution effects. Protein concentrations were determined spectrophotometrically with the specific absorbance at 280 nm employing an extinction coefficient of 76,445 mol^–1 cm^–1 for PmSiaT and 75,750 M^–1 cm^–1 for SaSiaT. […] In a typical experiment, a 0.3–1.0 mM inhibitor solution was titrated to a solution containing 30–50 μM of PmSiaT or 13–20 μM of SaSiaT to ensure >90% saturation. Baseline correction, peak integration, and nonlinear regression analysis of experimental data were performed using the NITPIC (version 1.2.2.)[41] and SEDPHAT (version 12.1b)[42] software packages. The stoichiometry parameter was manually constrained to a value of 1. Experiments were performed in triplicate and the 68% confidence intervals from global fitting of three experiments were calculated as an estimate of the experimental error. All the titration curves can be found in Figures S10–S15.

[3] = Metabolic stability in rat liver microsomes; assay type: in vitro ADME; conditions: for Metabolic stability in rat microsomes, Exp. 1 / Metabolic stability in rat microsomes, Exp. 2: intrinsic clearance, 1 µM compound; for microsomal CLint at 1 µM: rat liver microsomes, read-out: intrinsic clearance Clint
Protocol: The assay was run in a 96-deep well format and solutions were prepared containing microsomes in phosphate buffer. The microsomes employed were from humans, rats, and mice. The reaction was initiated by addition of NADPH after preincubation at 37 °C with test compounds. The reaction was stopped by the addition of acetonitrile (ACN) at six time points (0, 5, 10, 15, 25, and 45 min), the samples were centrifuged, and the supernatant was diluted to determine the loss of compound by LC–MS/MS. Two incubations per compound per species. For further details regarding working concentrations, volumes, and final concentrations at incubation, refer to the supplementary section (Table S6). […]
Metabolic Metabolic Metabolic stability in stability in stability in Plasma-protein human mouse rat In vitro plasma stability binding by RED
Assay/compo microsome microsome microsome (% compound remaining after (% unbound und s s s 23 h) compound, (µL/min/m (µL/min/m (µL/min/m average n=2) g protein) g protein) g protein)
Exp. Exp. Exp. Exp. Exp. Exp. Hum Mou Ra Do Mini Hum Mou Ra […]
Conc. of W orki ng Vol ume i n Fi nal conc. At sol uti on assay incubation
577 m g / m L520 µ L0. […]

[4] = Plasma stability, dog; assay type: in vitro ADME; conditions: 1 μM, 37 °C
Protocol: The reaction was started by the addition of the compound to blank plasma in LC vials after preincubation at 37 °C. The initial compound concentration was 1 μM. The reaction was stopped by the addition of ACN at seven time points (0, 0.5, 1, 2, 4, 6, and 23 h). Time point 0 h was about 15–20 s after spiking the plasma with the compound. The samples were centrifuged and the supernatant diluted and analyzed by LC–MS/MS to determine the % of compound remaining relative to the initial concentration of compound.

[5] = Solid solubility; assay type: physicochemical; conditions: phosphate buffer, pH 7.4, aqueous buffer, thermodynamic from solid; from solid material, tested up to 2000 μM; read-out: Solid solubility in 0.1 M phosphate buffer pH 7.4
Excerpt: Duplicate samples per compound.

[6] = PmSiaT, experiment 1, vs Neu5Ac, read-out: ΔTm 1
[7] = PmSiaT, experiment 2, vs Neu5Ac, read-out: ΔTm 2
[8] = nanoDSF, relative to Neu5Ac, ligand 1.25 mM, <−2.0 °C nonbinder, read-out: PmSiaT ΔTm
[9] = PmSiaT, experiment 3, vs Neu5Ac, read-out: ΔTm 3

SMILES | Average 2 [1] [°C] | Average 3 [1] [°C] | Replicate 1 [1] [°C] | Replicate 2 [1] [°C] | Replicate 3 [1] [°C] | Tm 1 ([1]; PmSiaT) [°C] | ΔTm [1, 6] [°C] | Tm2 ([1]; PmSiaT) [°C] | ΔTm [1, 7] [°C] | Tm 3 ([1]; PmSiaT) [°C] | Tm average overall ([1]; PmSiaT) [°C] | ΔTm [1, 8] [°C] | PmSiaT -TΔS° ([2]; ITC) [kcal/mol] | PmSiaT ΔG° ([2]; ITC) [kcal/mol] | PmSiaT ΔH° ([2]; ITC) [kcal/mol] | Kd ([2]; PmSiaT Kd, ITC, 25 °C) [µM] | Kd ([2]; PmSiaT Kd, ITC, Table S4) [µM] | Metabolic stability in rat microsomes, Exp. 1 [3] [µL/min/mg protein] | Metabolic stability in rat microsomes, Exp. 2 [3] [µL/min/mg protein] | microsomal CLint at 1 µM [3] [µL/min/mg] | also measured
CC(=O)NC1C(OCc2cc(Br)cc(Br)c2)CC(O)(C(=O)O)OC1C(O)C(O)CO (stereo not shown) [Compound 3f] | 62.8 | 63.7 | 64.2 | 63.0 | 63.6 | 63.9 | 15 | 62.6 | 13.6 | 63.8 | 63.5 | 14.3 | -17.8 | -8.96 | 8.87 | 0.27 ± 0.14 | 0.272 | < 10 | < 10 | < 10 | affinity increase of binding for PmSiaT ([2]; compared to the natural substrate Neu5Ac): 180 fold; In vitro plasma stability (% compound remaining after 23 h) [4]: 81%; solubility [5]: 1630 µM (≈ 908 µg/mL)
CC(=O)NC1C(OCc2ccccc2)CC(O)(C(=O)O)OC1C(O)C(O)CO (stereo not shown) [Compound 3a] | 53.8 | 54.1 | 54.6 | 53.9 | 54.2 | 54.5 | 5.6 | 53.7 | 4.6 | 54.0 | 54.2 | 4.8 ± 0.5 | -13.9 | -6.91 | 7 | 9 ± 3.2 | 8.77 | < 10 | < 10 | < 10 | Average 1 [1]: 54.6 °C; ΔTm at 1250 µM ([1]; PmSiaT): 5 °C; In vitro plasma stability (% compound remaining after 23 h) [4]: 100%; solubility [5]: > 2000 µM
CC(=O)N[C@H]1[C@H]([C@H](O)[C@H](O)CO)OC(O)(C(=O)O)C[C@@H]1O (stereo partly shown) [Neu5Ac, 5-N-acetyl neuraminic acid, reference compound] | 49.2 | 49.3 | 48.8 | 49.2 | 49.3 | 49.2 | 0 | 49.1 | 0 | 49.3 | 49.1 | 0 | -12.6 | -5.86 | 6.72 |  |  |  |  |  | Average 1 [1]: 49.0 °C; ΔTm [1, 9]: 0 °C; ΔTm at 1250 µM ([1]; PmSiaT): 0 °C; Kd [2]: 50 ± 9 µM
CC(=O)NC1C(OCc2cc(F)cc(F)c2)CC(O)(C(=O)O)OC1C(O)C(O)CO (stereo not shown) [Compound 3e] | 55.2 | 56.1 | 56.8 | 55.2 | 56.1 | 56.7 | 7.7 | 55.2 | 6 | 56.0 | 56.0 | 6.8 ± 0.9 | -15.7 | -7.12 | 8.58 | 6.2 ± 2.8 | 6.07 | < 10 | < 10 | < 10 | Average 1 [1]: 56.7 °C; ΔTm [1, 9]: 6.8 °C; ΔTm at 1250 µM ([1]; PmSiaT): 6.8 °C; In vitro plasma stability (% compound remaining after 23 h) [4]: 100%; solubility [5]: > 2000 µM
